Measurements: the OPERA property sets (Mansouri et al. 2018)

Conditions: for log10 BCF / log10 biotransformation half-life (days): fish

Row | SMILES | boiling point [°C] | melting point [°C] | also measured
1 | CCCCCOCCCCC | 190 | -69 | log10 Koa: 4.8; log10 vapour pressure (mmHg): -0.067
2 | O=C(O)C(F)(F)F | 73 | -15.2 | log10 Henry constant (atm·m³/mol): -6.95; log10 vapour pressure (mmHg): 2.04
3 | Clc1ccccc1NNc1ccccc1Cl | – | – | ready biodegradability: not readily biodegradable; log10 BCF: 3.66
4 | O=[N+]([O-])c1cc(C(F)(F)F)ccc1Cl | 222 | -2.5 | –
5 | C[Si](C)(Oc1ccccc1)Oc1ccccc1 | – | -23 | –
6 | CCCCCCCCCCc1ccc(O)c(/C=N/O)c1 | – | – | ready biodegradability: readily biodegradable
7 | OB(O)c1ccccc1 | – | 219 | –
8 | CCCCCC(=O)Cc1cc(O)cc2c1C(=O)Oc1cc(O)c(C(=O)O)c(CCCCC)c1O2 | – | 205 | –
9 | Cc1ccoc1 | 66 | – | –
10 | O=C(O)c1ccccc1SSc1ccccc1C(=O)O | – | 288 | –
11 | CC(=O)c1cccc(O)c1 | 296 | 96 | –
12 | Fc1cc(F)c(F)c(-c2c(F)c(F)cc(F)c2F)c1F | – | 85 | –
13 | Clc1cccc2nccc(Cl)c12 | – | 118 | –
14 | CCCCCCCCCCCC[N+](C)(C)Cc1ccccc1 | – | – | ready biodegradability: not readily biodegradable
15 | Cc1cc(Cc2cc(C)cc(C(C)(C)C)c2O)c(O)c(C(C)(C)C)c1 | – | 123 | ready biodegradability: not readily biodegradable; log10 BCF: 2.74; log10 biotransformation half-life (days): 0.03
16 | Nc1ccc(-c2ccc(N)cc2Cl)c(Cl)c1 | – | 165 | –
17 | NCC1CCCCC1 | 160 | – | –
18 | COC(=O)c1ccc2ccccc2c1 | 290 | 77 | –
19 | O=C(Cl)N(c1ccccc1)c1ccccc1 | – | 83 | –
20 | C=C(CC)C(=O)c1ccc(OCC(=O)O)c(Cl)c1Cl | – | 122 | –
21 | CN(C)CCc1ccc(O)cc1 | – | 118 | –
22 | CC(O)C(C)C(C)O (stereo not given) | 212 | – | –
23 | CCC(=O)OC(C)(C)C | 118 | – | –

Row | SMILES | boiling point [°C] | melting point [°C] | also measured
24 | S=C([S-])[S-] | – | -30 | –
25 | CC(=O)O[Si](C)(C)OC(C)=O | 165 | -12.5 | –
26 | COc1ccccc1C(=O)c1ccccc1 | – | 41 | –
27 | Cc1ccc2nc(C)cc(C)c2c1 | 280 | 68 | –
28 | C=C(C)[C@H]1Cc2c(ccc3c2O[C@@H]2COc4cc(OC)c(OC)cc4[C@@H]2C3=O)O1 | – | 176 | log10 Koc (L/kg): 4; log10 BCF: 1.41; log10 biotransformation half-life (days): -0.59
29 | CCOP(=O)(OCC)ON1C(=O)c2cccc3cccc(c23)C1=O | – | 177 | –
30 | Clc1ccc(C(Cl)(Cl)Cl)cc1 | 245 | – | –
31 | CCCCNC(=O)NS(=O)(=O)c1ccc(C)cc1 | – | 128 | –
32 | CC(=O)CC(=O)c1cccnc1 | – | 85 | –
33 | O=C(NC(=O)c1c(F)cccc1F)Nc1cc(Cl)c(OC(F)(F)C(F)C(F)(F)F)cc1Cl (stereo not given) | – | 166 | –
34 | Oc1c(Br)cc(Br)c(Br)c1Br | – | 114 | –
35 | CCC(=O)OC/C=C(\C)CCC=C(C)C | 253 | – | –
36 | O=c1c2ccccc2sc2ccccc12 | 373 | 209 | –
37 | CCCCCCCCCCCCCCCCS | 334 | 19 | log10 vapour pressure (mmHg): -4.99
38 | OCCCCl | 165 | – | –
39 | COC(=O)c1ccoc1 | 160 | – | –
40 | CCC(=O)OCCC(C)C | 160 | – | –
41 | CC[N+]1(CC)CCC(OC(=O)C(O)(c2ccccc2)c2ccccc2)C1.[Br-] (stereo not given) | – | 204 | –
42 | COc1cc(C#N)ccc1O | – | 86 | –
43 | O=c1ccc2ccc(O)cc2o1 | – | 230 | –
44 | CCCNC(C)C | 96.9 | – | –
45 | CCc1ccc2cc3ccccc3cc2c1 | – | 152 | log10 vapour pressure (mmHg): -5.28
46 | CC(O)COCC(C)O (stereo not given) | 233 | – | ready biodegradability: not readily biodegradable; log10 BCF: 0.66

Row | SMILES | boiling point [°C] | melting point [°C] | also measured
47 | N#Cc1cc(I)c([O-])c(I)c1.[Na+] | – | 360 | –
48 | C[C@H](N[C@@H](C)c1ccccc1)c1ccccc1 | 296 | – | –
49 | CCNc1nc(Cl)nc(NC(C)(C)C)n1 | – | 178 | log10 Koc (L/kg): 2.32; log10 vapour pressure (mmHg): -5.95
50 | CCCCCCCCCCCCNC(=O)C[N+](C)(C)Cc1ccccc1.[Cl-] | – | 148 | –
51 | COC(=O)CC#N | 200 | -22.5 | log10 vapour pressure (mmHg): -0.86
52 | CCOP(=O)([O-])C(N)=O.[NH4+] | – | 175 | –
53 | CCCCCCCCCCCCCCCCCCCCCCCCCCCCCCCCCCCC | – | 76.5 | ready biodegradability: readily biodegradable
54 | CC(Cl)(Cl)C(=O)OCCOc1cc(Cl)c(Cl)cc1Cl | – | 49.5 | –
55 | OCc1cccnc1 | 266 | -6.5 | –
56 | O=C(O)c1ccccc1C(=O)c1ccccc1 | 261 | 127 | –
57 | FC(Cl)=C(Cl)C(F)(F)F | 47.3 | -137 | –
58 | C=C(F)F | -85.7 | -144 | log10 vapour pressure (mmHg): 4.48
59 | O=C(O)CCN1C(=O)C=CC1=O | – | 104 | –
60 | C#CCN1C(=O)CN=C(c2ccccc2)c2cc(Cl)ccc21 | – | 141 | –
61 | COc1cccc(OC)n1 | 179 | – | –
62 | CN(C)C(=O)Nc1ccc(Oc2ccc(Cl)cc2)cc1 | – | 151 | log10 Koc (L/kg): 3.55; log10 vapour pressure (mmHg): -8.41; ready biodegradability: not readily biodegradable
63 | CCCCCCC(=O)OCCCCC | 245 | -50 | –
64 | Cc1ccc(C)c(Cl)c1 | 187 | 1.6 | ready biodegradability: not readily biodegradable
65 | CC(C)(O)CCCC1=CCC(C=O)CC1 (stereo not given) | – | -30 | ready biodegradability: readily biodegradable
66 | O=C(O)C(I)I | – | 110 | –
67 | N#Cc1ccc(N)c2ccccc12 | – | 176 | –
68 | Cc1cc(-n2nc3ccc(Cl)cc3n2)c(O)c(C(C)(C)C)c1 | – | – | ready biodegradability: not readily biodegradable
69 | CCOCc1ccco1 | 149 | – | –

Row | SMILES | boiling point [°C] | melting point [°C] | also measured
70 | O=C(O)C(O)c1ccccc1 (racemic) | – | 124 | –
71 | CC(C)(C)C(=O)C1C(=O)c2ccccc2C1=O | – | 109 | –
72 | CCCCCC(=O)OCCC(C)C | 226 | – | –
73 | CCC(C)CCC=C(C)C (stereo not given) | 163 | – | –
74 | Clc1ccc(Cl)c(-c2c(Cl)c(Cl)cc(Cl)c2Cl)c1Cl | – | – | log10 Henry constant (atm·m³/mol): -4.62
75 | Clc1ccc(Oc2ccccc2Cl)cc1 | – | – | log10 vapour pressure (mmHg): -3.15
76 | CCc1ccc(OC)cc1 | 198 | – | –
77 | NC(=O)c1ccc(Cl)cc1 | – | 174 | –
78 | COc1ccc2ncccc2c1 | 306 | 26.5 | –
79 | CC(=O)c1ccccc1[N+](=O)[O-] | – | 28.5 | –
80 | CN1CCCCC1 | 107 | – | log10 Henry constant (atm·m³/mol): -4.46; log10 vapour pressure (mmHg): 1.29; ready biodegradability: not readily biodegradable; log10 BCF: 0.65
81 | CC(C)(C)NCC(O)COc1cccc2c1C[C@H](O)[C@H](O)C2 (stereo not given in full) | – | 130 | –
82 | CC1(C)[C@H](C=C(Cl)Cl)[C@H]1C(=O)OCc1cccc(Oc2ccccc2)c1 | – | – | ready biodegradability: not readily biodegradable
83 | C=CC[C@]1(O)CC[C@H]2[C@@H]3CCC4=CCCC[C@@H]4[C@H]3CC[C@@]21C | – | 80 | –
84 | O=C1CCCC(=O)N1 | – | 156 | –
85 | O=C(O)CNC(CO)(CO)CO | – | 187 | –
86 | O=C(C(F)(F)F)C(F)(F)F | -27.4 | -125 | log10 vapour pressure (mmHg): 3.35
87 | COc1ccccc1Oc1ccccc1OC | 330 | 79.5 | –
88 | CCCC(C)CC(C)CC (stereo not given) | 159 | – | –
89 | C1=CCC2CC2C1 (stereo not given) | 125 | – | log10 vapour pressure (mmHg): 1.36
90 | CCc1ccc2c(c1)C(=O)c1ccccc1C2=O | – | 110 | ready biodegradability: not readily biodegradable; log10 BCF: 0.98
91 | CCCCOCC1CO1 (stereo not given) | 165 | – | log10 vapour pressure (mmHg): 0.505; ready biodegradability: readily biodegradable
